From patent US20230255864A1, “NOVEL COMPOSITIONS COMBINING HEMP DERIVATIVES AND AT LEAST ONE PEPTIDE AND USE THEREOF” (FRANCE COSMEPHYL-LAB, priority 2020, published 2023)
Read-outs that look alike come from different tables or passages of the source.

Experiment: Cell viability of murine macrophages (WST-1 mitochondrial respiration), in parallel with NO release
Format: cell-based
Details: mouse, read-out: Cell viability (% as compared to the negative control)
Method: MURINS RAW 267.4 Macrophage cell line (Sigma-Aldrich, No. P6110401, Lot. 091006), low number of passages (less than 50).
Complete medium: DMEM with stabilized L-glutamine (Dulbecco's Minimum Essential Medium, PAN BIOTECH. Lot 974251) supplemented with Penicillin 100 IU/ml and streptomycin 100 μg/m1 (PAN BIOTECH, Lot 225614), and 10% inactivated calf serum (PAN BIOTECH, Lot P460518), pH 7.2, freshly prepared, stored for less than 3 weeks.
Cannabidiol (CBD) is diluted in DMSO (10 mg/mL storage solution), and subjected to an ultrasonic bath for 20 minutes. The Neutrazen™ solution is diluted in PBS (Phosphate buffer saline, Sigma-Aldrich).
RAW 267.4 murine macrophages were inoculated into 48-well tissue culture plates at a concentration of 1.10^5 cells/ml (200 μl/well) and incubated for 24 hours at 37° C. (5% CO2).
At the end of the incubation period, the culture medium was replaced with 200 μl of medium containing the appropriate concentrations of the material to be tested, and the cells were incubated at 37° C. (5% CO2) for one hour.
At the end of the incubation period, pro-inflammatory E. coli LPS was added to the cell cultures (1 μg/ml. Then the cells were incubated at 37° C. (5% CO2) for 24 hours.
In parallel with the evaluation of the release of NO, the cell viability was measured to validate the tests. Vital Stain Reagent WST-1 was used to measure cellular mitochondrial respiration. For this, the culture medium was decanted and 100 μl of WST-1 reagent ( 1/10 dilution) were added to each well. After an incubation period of 30 min at 37° C. (5% CO2), the Optical Density (OD) of each well was read at a wavelength of 450 nm by an Infinite M200 Pro fluorescence-luminescence reader (TECAN). The results obtained for the wells treated with the test material were compared with those of the untreated control wells (DMSO, 100% viability) and converted into percentage values.
Inhibition of NO release and inhibition of cell viability were expressed as a percentage relative to the negative controls: […]
The concentrations of test material causing a 50% decrease in NO release (IC50 (NO release)) and a 50% decrease in cell viability (IC50 (cell viability)) respectively were calculated using TableCurve software Version 2.0.
Analysis of the anti-inflammatory activity and of the cell viability of the cannabidiol/palmitoyl tripeptide-8 (Neutrazen™) association in a mixture by isobologram analysis. For each concentration of Neutrazen™ (0.01, 0.025, 0.05 and 0.1%), different concentrations of CBD are tested (0.01, 0.025, 0.05, 0.1, 0.25, 0.5, 1 and 2.5%) to determine both the production of NO and cell viability.
The results obtained with the different mixtures of CBD and Neutrazen™ made it possible to calculate the pairs of concentrations corresponding to a 50% reduction in the production of NO and a 50% reduction in cell viability.

SMILES: C=C(C)[C@@H]1CCC(C)=C[C@H]1c1c(O)cc(CCCCC)cc1O [CBD]
- viability at 25 h, 0.01 weight % (pH 7.2, CBD 0.01 weight % in mixture with NeutraZen 0.01%): 98.6%
- viability at 25 h, 0.01 weight % (pH 7.2, CBD 0.01 weight % in mixture with NeutraZen 0.025%): 102%
- viability at 25 h, 0.01 weight % (pH 7.2, CBD 0.01 weight % in mixture with NeutraZen 0.05%): 98%
- viability at 25 h, 0.01 weight % (pH 7.2, CBD 0.01 weight % in mixture with NeutraZen 0.1%): 101%
- viability at 25 h, 0.025 weight % (pH 7.2, CBD 0.025 weight % in mixture with NeutraZen 0.01%): 99.7%
- viability at 25 h, 0.025 weight % (pH 7.2, CBD 0.025 weight % in mixture with NeutraZen 0.025%): 104%
- viability at 25 h, 0.025 weight % (pH 7.2, CBD 0.025 weight % in mixture with NeutraZen 0.05%): 99.1%
- viability at 25 h, 0.025 weight % (pH 7.2, CBD 0.025 weight % in mixture with NeutraZen 0.1%): 99.7%
- viability at 25 h, 0.05 weight % (pH 7.2, CBD 0.05 weight % in mixture with NeutraZen 0.01%): 97.7%
- viability at 25 h, 0.05 weight % (pH 7.2, CBD 0.05 weight % in mixture with NeutraZen 0.025%): 96.2%
- viability at 25 h, 0.05 weight % (pH 7.2, CBD 0.05 weight % in mixture with NeutraZen 0.05%): 101%
- viability at 25 h, 0.05 weight % (pH 7.2, CBD 0.05 weight % in mixture with NeutraZen 0.1%): 103%
- viability at 25 h, 0.1 weight % (pH 7.2, CBD 0.1 weight % in mixture with NeutraZen 0.01%): 102%
- viability at 25 h, 0.1 weight % (pH 7.2, CBD 0.1 weight % in mixture with NeutraZen 0.025%): 100%
- viability at 25 h, 0.1 weight % (pH 7.2, CBD 0.1 weight % in mixture with NeutraZen 0.05%): 100%
- viability at 25 h, 0.1 weight % (pH 7.2, CBD 0.1 weight % in mixture with NeutraZen 0.1%): 97.1%
- viability at 25 h, 0.25 weight % (pH 7.2, CBD 0.25 weight % in mixture with NeutraZen 0.01%): 92.2%
- viability at 25 h, 0.25 weight % (pH 7.2, CBD 0.25 weight % in mixture with NeutraZen 0.025%): 88.5%
- viability at 25 h, 0.25 weight % (pH 7.2, CBD 0.25 weight % in mixture with NeutraZen 0.05%): 98.6%
- viability at 25 h, 0.25 weight % (pH 7.2, CBD 0.25 weight % in mixture with NeutraZen 0.1%): 95.7%
- viability at 25 h, 0.5 weight % (pH 7.2, CBD 0.5 weight % in mixture with NeutraZen 0.01%): 6.34%
- viability at 25 h, 0.5 weight % (pH 7.2, CBD 0.5 weight % in mixture with NeutraZen 0.025%): 6.95%
- viability at 25 h, 0.5 weight % (pH 7.2, CBD 0.5 weight % in mixture with NeutraZen 0.05%): 7.76%
- viability at 25 h, 0.5 weight % (pH 7.2, CBD 0.5 weight % in mixture with NeutraZen 0.1%): 8.56%
- viability at 25 h, 1 weight % (pH 7.2, CBD 1 weight % in mixture with NeutraZen 0.01%): 5.66%
- viability at 25 h, 1 weight % (pH 7.2, CBD 1 weight % in mixture with NeutraZen 0.025%): 5.19%
- viability at 25 h, 1 weight % (pH 7.2, CBD 1 weight % in mixture with NeutraZen 0.05%): 7.74%
- viability at 25 h, 1 weight % (pH 7.2, CBD 1 weight % in mixture with NeutraZen 0.1%): 8.58%
- viability at 25 h, 2.5 weight % (pH 7.2, CBD 2.5 weight % in mixture with NeutraZen 0.01%): 7.21%
- viability at 25 h, 2.5 weight % (pH 7.2, CBD 2.5 weight % in mixture with NeutraZen 0.025%): 4.12%
- viability at 25 h, 2.5 weight % (pH 7.2, CBD 2.5 weight % in mixture with NeutraZen 0.05%): 8.14%
- viability at 25 h, 2.5 weight % (pH 7.2, CBD 2.5 weight % in mixture with NeutraZen 0.1%): 8.93%
- viability at 25 h, 0.01 weight % (pH 7.2, sample alone at 0.01 weight %): 99.4%
- viability at 25 h, 0.025 weight % (pH 7.2, sample alone at 0.025 weight %): 98.3%
- viability at 25 h, 0.05 weight % (pH 7.2, sample alone at 0.05 weight %): 97.9%
- viability at 25 h, 0.1 weight % (pH 7.2, sample alone at 0.1 weight %): 53.1%
- viability at 25 h, 0.25 weight % (pH 7.2, sample alone at 0.25 weight %): 8.24%
- viability at 25 h, 0.5 weight % (pH 7.2, sample alone at 0.5 weight %): 4.73%
- viability at 25 h, 1 weight % (pH 7.2, sample alone at 1 weight %): 2.9%
